From patent US20230062537A1, “Therapy of oxygen pulses for treating neurodegenerative disorders such as Parkinson Disease (PD), Alzheimer’s Disease (AD), Amiotrophic Lateral Sclerosis (ALS) or Motor Neuron Disease (MND) and other dementias, and Lymphedema, Arthritis and Depression” (priority 2021, published 2023)
Like-named read-outs stand apart in the source and are kept apart here.

What was measured:
[1] = test system: Arthritis; details: method No 4
Procedure: (§1) The pulse oxygen therapy as described therein for treating neurodegenerative diseases (PD, AD, ALS, MS, Arthritis, Lymphedema and Depression) to patients with mild, moderate, severe, or critical conditions may be applied as follow: • 1. […] Patients must have comfortable accommodation (temperature, illumination and sanitary conditions). • 2. As prophylactic treatment (elder patients and/or with chronic diseases) treat patients with 6 l/min oxygen flow for 60 min once a day during 5 days. • 3. As treatment for patients with mild disease (initial symptoms) treat patients with 6 l/min oxygen flow for 60 min once a day during 10 days. • 4. As treatment for patients with moderate disease treat patients with 6 l/min oxygen flow for 60 min twice a day during 10 days. • 5. As treatment for patients with severe disease treat patients with 6 l/min oxygen flow for 60 min four time a day during 10 days. • 6. As treatment for patients with critical disease treat patients with 6 l/min oxygen flow for 60 min every 3 hours during 10 days.

[2] = test system: Depression; details: method No 4
Procedure: as §1

[3] = test system: Lymphedema; details: method No 4
Procedure: as §1

[4] = test system: Parkinson Disease
Procedure: as §1

[5] = for oxygen transported to the tissues: cardiac flow of 1 l/min
Text: At sea level, (non humidified) room air contains 21% O2 which translates into an oxygen partial pressure of 160 mm Hg [0.21*760 mm Hg)]. However, the body mean tissue oxygen levels are much lower than this level. Alveolar air contains 14% oxygen (106 mm Hg), arterial oxygen concentration is 12% (91 mm Hg), venous oxygen levels are 5.3% (40 mm Hg), and mean tissue intracellular oxygen concentration is only 3% (22 mm Hg (Guyton, and Hall, 1996). Furthermore, direct microelectrode measurements of tissue O2 reveal that parts of the brain normally experience O2 levels considerably lower than total body mean tissue oxygen levels, reflecting the high oxygen utilization in brain. These studies also highlight considerable regional variation in average brain oxygen levels (Table 1) that have been attributed to local differences in capillary density. Mean brain tissue oxygen concentration in adult rates is 1.5% (Silver and Erecinska, 1988), and mean fetal sheep brain oxygen tension has also been estimated at 1.6% (Koos and Power, 1987).
If we inspire air at normal pressure of 760 mm Hg (O221%) alveolar oxygen content will be 14% (106 mm Hg) and arterial oxygen content 12% (91 mm Hg). However arterial oxygen content includes oxygen content in the Hemoglobin plus oxygen absorbed in the plasma. (Mathews and Van Holde, 2002)
Oxygen content in the Hemoglobin (ml/dL)=Hb (g/dL)*% Sat.*[…]
At 100 mmHg oxygen pressure and 100% Hemoglobin saturation Oxygen content in the arterial blood is 20.7 ml/dL
If we consider a normal cardiac flow of 1 l/min, oxygen transported to the tissues would be […] or 0.924 mol-g of oxygen (5.57*10^23 molecules of oxygen/min.).
If we inspire oxygen enriched air of 31% O2, arterial pressure of oxygen would be (31/21)*100=147 mm Hg
Also oxygen content at the brain tissue will be:
Oxygen content in the arterial blood=Oxygen in Hemoglobin+Oxygen absorbed in the plasma
If we inspire oxygen of 95% O2, arterial pressure of oxygen would be (95/21)*100=452 mm Hg

[6] = test system: PD, AD, ALS, Arthritis, Lymphedema, and Depression patients
Procedure: In our therapy the oxygen pulses are administered in consonance with the advance of the neurodegenerative diseases (PD, AD, ALS, MS, Arthritis, Lymphedema and Depression) as described as follow: • a. At the beginning of the neurodegenerative disease with the apparition of the first symptoms using procedure 1 or 2 twice a day for 5 days. • b. When the neurodegenerative disease has been detected, with a medical diagnostic, using procedure 1 or 2 four times a day for 10 days. • c. With an advanced neurodegenerative disease using procedure 1 or 2 eight times a day for 10 days

O=O [oxygen]
deformation at follow-up ([1]; after 12 months): no more deformation has been observed
outcome after 10 days ([1]; after 10 days): a notable recuperation takes place
time to begin of recovery ([1]; person, severe deformation in hands): 5 days
Depression at follow-up ([2]; after 11 months): no more Depression has been detected
outcome after 10 days ([2]; after 10 days): a notable recuperation takes place
time to begin of recovery ([2]; person, severe Depression): 5 days
limbs inflammation at follow-up ([3]; after 11 months): no limbs inflammation has developed
outcome after 10 days ([3]; after 10 days): a notable recuperation takes place
time to begin of recovery ([3]; person, severe limbs inflammation after cancer radiotherapy): 5 days
symptoms at follow-up ([4]; after 12 months, method No 4): no AD symptoms has developed
time to recovery ([4]; patient, moderate conditions, method No 4: 6 l/min oxygen flow 60 min twice a day during 10 days): 5 days
additional flow of oxygen ([5]; 31% O2 inspired): 0.15 L/min
increase of the oxygen transport to the tissues ([5]; 31% O2 inspired): 0.72%
Oxygen content in the arterial blood ([5]; 31% O2 inspired, 147 mm Hg): 20.85 ml/dL
oxygen transported to the tissues ([5]; 31% O2 inspired): 20.85 l Oxygen/min
Oxygen at the brain level, Cortex (gray) ([5]; 31% oxygen inspired): 3.69-7.79 % O2
Oxygen at the brain level, Cortex (white) ([5]; 31% oxygen inspired): 1.17-3.0 % O2
Oxygen at the brain level, Hippocampus ([5]; 31% oxygen inspired): 3.8-5.7 % O2
Oxygen at the brain level, Hypothalamus ([5]; 31% oxygen inspired): 2.0-3.0 % O2
Oxygen at the brain level, Pons, fornix ([5]; 31% oxygen inspired): 0.14-0.58 % O2
additional flow of oxygen ([5]; 95% O2 inspired): 1.4 L/min
increase of oxygen flow to the tissues ([5]; 95% O2 inspired): 6.76%
Oxygen content in the arterial blood ([5]; 95% O2 inspired, 452 mm Hg): 21.80 ml/dL
oxygen transported to the tissues ([5]; 95% O2 inspired): 21.80 l Oxygen/min
Oxygen at the brain level, Cortex (gray) ([5]; 95 % oxygen inspired): 11.3-23.8 % O2
Oxygen at the brain level, Cortex (white) ([5]; 95 % oxygen inspired): 3.58-9.18 % O2
Oxygen at the brain level, Hippocampus ([5]; 95 % oxygen inspired): 11.6-17.4 % O2
Oxygen at the brain level, Hypothalamus ([5]; 95 % oxygen inspired): 6.12-9.18 % O2
Oxygen at the brain level, Pons, fornix ([5]; 95 % oxygen inspired): 0.42-1.77 % O2
arterial pressure of oxygen ([5]; oxygen enriched air of 31% O2 inspired): 147 mm Hg
arterial pressure of oxygen ([5]; oxygen of 95% O2 inspired): 452 mm Hg
use of the therapy in patients [6]: satisfactory used
